Source: patent US10900091B2, “miR-133a as a marker for colorectal cancer” (The Chinese University of Hong Kong, priority 2019, dated 2021)
Entries after “also recorded” stand apart in the source; their conditions may differ.

Key:
stage IV CRC patients = test: Response of stage IV CRC patients to oxaliplatin-based first-line treatment (RECIST); type: in vivo, human; details: 42 stage IV CRC patients, oxaliplatin-based first-line therapy
Source text: A cohort of 42 pairs of tumor and adjacent normal tissue FFPE blocks obtained from stage IV CRC patients who had received oxaliplatin-based treatment as first-line therapy at Prince of Wales Hospital between 2003 and 2010, and with known clinico-oncologic outcomes were identified from the prospectively collected database. Patients were classified into responders and non-responders group according to RECIST guideline (7). Responders are defined as the patients achieving complete response (CR) and partial response (PR), and non-responder group as patients with stable disease (SD) and progressive disease (PD). Overall survival (OS) was calculated from the operation day to the date of death or the last visit with censoring. The progress free survival (PFS) during first-line chemotherapy was determined from the operation day to the first-line progression as documented by either CT scan, positron emission tomography/CT scan, or Carcinoembryonic antigen (CEA). Forty-six mCRC patients received oxaliplatin-based treatment as first-line therapy at Beijing Oncology Hospital were used as a validation cohort (BJ cohort). […]
miR-133a level was next evaluated in 42 pairs paraffin blocks of tumor and adjacent normal tissues from stage IV CRC patients who had received oxaliplatin-based treatment. […]

[1] = system: CRC cell lines (HT29, SW1116, HCT116, HCT116p53−/−, RKO, DLD1); test: MTT cell viability assay: oxaliplatin sensitization after ectopic miR-133a expression; type: cell-based, human; details: CRC cell lines with ectopic expression of miR-133a; oxaliplatin treatment; FIG. 4
Description: (§1) Human miR-133a precursor (PM10413) was purchased from Thermo Fisher Scientific. […] Cells were transfected with miRNAs using Lipofectamine 2000 (Invitrogene). Cells transfected with miRNA were harvested 12 h to 48 h post-transfection.
After 24 h of transfection, cells were collected and seeded (500-1000/well) in a fresh 96-well plate for 5 days. Cell viability was determined using the conversion of 3-(4,5-dimethylthiazol-2-yl)-2,5-diphenyltetrazolium bromide (MTT) to formazan via mitochondrial oxidation. MTT solution was then added to each well at a final concentration of 0.2 mg/ml per well and the plates were incubated at 37° C. for another 1 h. After incubation, 200 μl of dimethyl sulfoxide was added to each well to dissolve the formazan formed and the absorbance was measured at 570 nm using a spectrophotometer. All the experiments were repeated in three independent experiments in triplicate.
To validate the role of miR-133a in oxaliplatin sensitization in vitro, miR-133a was expressed in the microsatellite stable (HT29, SW1116) and microsatellite instable CRC cell lines (HCT116, HCT116^p53−/−, RKO, DLD1), respectively. 50% inhibitory concentration (IC50) of each cell lines was calculated by means of MTT assay. Restoration of miR-133a was sufficient to result in a 1.5 to 2.9 fold sensitization to oxaliplatin treatment in all the tested cell lines (FIG. 4).

human GCLC 3′-UTR = test: Dual-luciferase reporter assay, GCLC 3′UTR; type: cell-based
Description: (§2) Wild-type or mutanted human ATP7B, ABCC1 and GCLC 3′-UTR were cloned into pMIR-REPORT vector (Thermo Fisher Scientific) at the SacI and SpeI sites, respectively. Co-transfection of reporter plasmids and miRNA in 24-well plates were carried out with lipofectamine 2000 as described by the manufacture. Per well, 195 ng luciferase report plasmid, 5 ng pRL-cytomegalovirus (CMV) vector and 15 pmole miRNA were applied. Cells were harvested 48 h post-transfection and luciferase activities were analyzed by the dual-luciferase reporter assay system (Promega, Madison, Wis.).
(§3) To characterize the chemosensitizing property of miR-133a to oxaliplatin treatment, miR-133a targets that regulated the metabolism of oxaliplatin were searched for. Increased drug efflux and activation of detoxification system are two major aspects that induce Platinum-based drugs resistance (15). Previous studies indicate that ATPase Cu++ transporting beta polypeptide (ATP7B), ATP-binding cassette sub-family C member 1 (ABCC1) and γ-glutamylcysteine liganse (GCLC) regulated Platinum-based drugs efflux and detoxification (16-21). […] Furthermore, their predicted 3′UTR binding sites, as well as their mutant form, were attached to firefly luciferase reporter gene, respectively. miR-133a repressed wild-type ATP7B, ABCC1, and GCLC-3′UTR reporter activity for about 64%, 56% and 42%, respectively (FIG. 5A, P<0.05).

GCLC = test: Endogenous GCLC expression after miR-133a transfection (qPCR, western blot); type: cell-based, human
Description: as §1
(§4) Protein concentration was measured by the Bradford DC protein assay (Bio-Rad, Hercules, Calif.). 5-20 μg of protein from each sample were separated on 10% Bis-Tris-polyacrylamide gel through electrophoresis and blotted onto nitrocellulose membranes (GE Healthcare, Piscataway, N.J.). Blots were immunostained with primary antibodies at 4° C. overnight and secondary antibody at room temperature for 1 h. Protein was visualized using ECL Plus Western Blotting Detection Reagents (GE Healthcare). Independent experiments were performed at least twice.
(§5) To characterize the chemosensitizing property of miR-133a to oxaliplatin treatment, miR-133a targets that regulated the metabolism of oxaliplatin were searched for. Increased drug efflux and activation of detoxification system are two major aspects that induce Platinum-based drugs resistance (15). Previous studies indicate that ATPase Cu++ transporting beta polypeptide (ATP7B), ATP-binding cassette sub-family C member 1 (ABCC1) and γ-glutamylcysteine liganse (GCLC) regulated Platinum-based drugs efflux and detoxification (16-21). […]

ATP7B = test: Endogenous ATP7B expression after miR-133a transfection (qPCR, western blot); type: cell-based, human
Description: as §1, §4, §5

human ATP7B 3′-UTR = test: Dual-luciferase reporter assay, ATP7B 3′UTR; type: cell-based
Description: as §2, §3

human ABCC1 3′-UTR = test: Dual-luciferase reporter assay, ABCC1 3′UTR; type: cell-based
Description: as §2, §3

ABCC1 = test: Endogenous ABCC1 expression after miR-133a transfection (qPCR, western blot); type: cell-based, human
Description: as §1, §4, §5

[2] = qPCR, HCT116 and DLD1 (also HEK293)
[3] = western blot, HCT116, DLD1 and HEK293 (293T in the source)

Molecule | objective response rate (stage IV CRC patients) | IC50 compared with the control group [1] | effect on mutant GCLC-3′UTR reporter activity (human GCLC 3′-UTR; mutant 3′UTR) | repression of wild-type GCLC-3′UTR reporter activity (human GCLC 3′-UTR; wild-type 3′UTR, P<0.05) | GCLC mRNA level (GCLC; [2]) | GCLC protein level (GCLC; [3]) | ATP7B mRNA level (ATP7B; [2]) | ATP7B protein level (ATP7B; [3]) | effect on mutant ATP7B-3′UTR reporter activity (human ATP7B 3′-UTR; mutant 3′UTR) | repression of wild-type ATP7B-3′UTR reporter activity (human ATP7B 3′-UTR; wild-type 3′UTR, P<0.05) | effect on mutant ABCC1-3′UTR reporter activity (human ABCC1 3′-UTR; mutant 3′UTR) | repression of wild-type ABCC1-3′UTR reporter activity (human ABCC1 3′-UTR; wild-type 3′UTR, P<0.05) | ABCC1 mRNA level (ABCC1; [2]) | ABCC1 protein level (ABCC1; [3])
O=C1[O][Pt]2([NH][C@@H]3CCCC[C@H]3[NH]2)[O]C1=O [oxaliplatin, Oxaliplatin] | 29% | – | – | – | – | – | – | – | – | – | – | – | – | –
hsa-miR-133a-3p (UUUGGUCCCCUUCAACCAGCUG; precursor form, further chemistry not given here; listed as Homo sapiens) [Human miR-133a precursor purchased from Thermo Fisher Scientific, transfected into cells] | – | lower | no inhibition effect | ~42% | significantly suppressed; also recorded: remarkably reduced; also recorded: decreased | remarkably reduced; also recorded: decreased | significantly suppressed; also recorded: remarkably reduced; also recorded: decreased | remarkably reduced; also recorded: decreased | no inhibition effect | about 64% | no inhibition effect | ~56% | significantly suppressed; also recorded: remarkably reduced; also recorded: decreased | remarkably reduced; also recorded: decreased
